US7015251B1 (priority 1999, dated 2006)
Values after ≈ are worked out from the molar mass of the structure shown. “Also recorded” adds a separate entry of the source.

Tests used:
[1] = tested on: TU138; assay: MTT dye assay at 72 hrs, TU138; type: cell-based, human
[2] = tested on: LnCap; assay: MTT dye assay at 72 hrs, LnCap; type: cell-based, human
[3] = tested on: HT29; assay: MTT dye assay at 72 hrs, HT29; type: cell-based, human
[4] = tested on: MCF-7; assay: MCF-7 cell cycle progression; type: cell-based, human
[5] = tested on: PC-3; assay: MTT dye assay at 72 hrs, PC-3; type: cell-based, human
[6] = tested on: tumor cell lines; assay: MTT dye assay at 72 hrs, tumor cell lines tested (ID50); type: cell-based, human
[7] = tested on: recurrent breast cancer; conditions: single agent, cited from earlier work
[8] = tested on: Jurkat cells; assay: Jurkat cell proliferation assay (3H-thymidine uptake); type: cell-based, human
Method: Cell Proliferation Assays. […] DNA synthesis was assessed by the addition of ^3H-thymidine (1 μCi/well; specific activity—6.7 Ci/mmol; ICN Pharmaceuticals, Costa Mesa, Calif.) uptake 24 hours before the end of the 72 hour growth period at a final concentration of 1 μCi/well.

[9] = tested on: Tu138 cells; conditions: for Tumor Size (mm^2) at Week 5 / reduction in tumor growth / tumor size vs vehicle control: paclitaxel 120 μg and/or ceramide 500 μg in cremophore; for Tumor Size (mm^2) at Week 5: s.c. near tumor thrice weekly from day 4 for 5 weeks; for reduction in tumor growth / tumor size vs vehicle control: s.c., week 5 (Table 3)
Description: The vehicle control consisted of cremophore only at the concentration utilized in the combination treatment.
In a separate experiment nude mice were implanted with 1−2×10^6 Tu138 cells. […] The vehicle control consisted of cremophore only at the concentration utilized in the combination treatment.

[10] = tested on: RWP-2; assay: MTT dye assay at 72 hrs, RWP-2; type: cell-based, human
[11] = tested on: Tu138 cell-tumor; assay: Tu138 tumor in nude mice, subcutaneous treatment near tumor site
Method: To corroborate in vitro findings Tu138 cells were planted subcutaneously on nude mice. […] Tumor size was measured once a week. All groups of mice were sacrificed on day 45 and excised tumors were weighed.

[12] = tested on: Jurkat; assay: MTT dye assay at 72 hrs, Jurkat; type: cell-based, human
[13] = tested on: Jurkat cells; assay: Jurkat TUNEL assay for apoptosis; type: cell-based, human; conditions: 48 hours
Method: Terminal deoxynucleotide transferase (TdT) mediated deoxyuridine triphosphate (dUTP) nick-end labeling (TUNEL) assay. […] At 24 and 48 hours, DNA strand breaks were labeled with TUNEL assay (In Situ Cell Death Detection Kit, Fluorescein; Boehringer Mannheim, Indianapolis, Ind.), and cellular apoptosis was measured by flow cytometry.

[14] = tested on: Tu138 cells; assay: Tu138 cell cycle measurements (flow cytometry); type: cell-based, human; conditions: for cells blocked in the G2-M phase: paclitaxel 600 ng/ml; for effect on cell cycle progression: ceramide 25 μg/ml alone, 24 or 48 hours, n=4
Method: (§1) At the end of either 24 or 48 hours, cells were trypsinized and washed with the culture medium. For cell cycle measurements, cells were mixed with 0.5 ml of 0.1% propidium iodide solution (New Concepts Scientific Ltd. ON) containing 0.1% sodium citrate and 0.1% NP-40. RNase (1 μg) was added to each sample and cells were incubated at 4° C. for 30 minutes. At least 1×10^4 cells were acquired on a precalibrated FACScan (Beckton Dickinson, Calif.) flow cytometer. For precalibration “DNA QC” (Becton Dickinson, Calif.) kit was utilized. The acquired cells were then subjected to cell cycle analysis by the use of “Modfit LT” software (Beckton Dickinson, Calif.). For measurements of apoptosis, In Situ Cell Death Detection Kit (Boehringer Manheim, Ind.) followed by flow cytometry analysis was utilized.

[15] = tested on: Tu138 cells; assay: Tu138 TUNEL assay for apoptosis; type: cell-based, human
Method: as §1

[16] = tested on: Jurkat cells; assay: Jurkat cell cycle analysis (propidium iodide, FACScan); type: cell-based, human; conditions: 24 hours
Description: Cell Cycle Analysis. […] Pie graphs (FIGS. 3A–F) were generated and normalized to a control value of 100%.

[17] = tested on: Tu138 cells; assay: Tu138 MTT dye assay (cytotoxicity, isobologram); conditions: for ED50 (cytotoxicity, MTT): n=6, 3 days; for cytotoxicity: 3 days of culture; for cell cytotoxicity (time kinetics): ceramide 25 μg/ml alone
Method: Tu138, an adherent squamous carcinoma cell line of the head and neck was established at U T M D Anderson Cancer Center, Houston, Tex. (20, 21) and was generously provided by Dr. Gary Clayman's laboratory. Tu138 cells were maintained routinely in T-75 culture flasks (Falcon, Inc., NJ) at a plating cell density of 0.1×10^6 per 75 sq. cm. surface area in complete D-MEM/F-12 culture medium (10 ml) containing 10% fetal bovine serum (FBS, Atlanta Biologicals, Ga.), 2 mM glutamine (Gibco, NY), 50 units/mL penicillin, […] streptomycin (Gibco, NY) and 20 mM Hepes (Sigma, MO) in a 5% CO2 atmosphere at 37° C. Tu138 cells were replenished with fresh complete culture medium twice weekly until confluence.
At the indicated times (24 to 72 hours), cells were subjected to (a) tetrazolium-based dye assay for cell survival measurements, (b) flow cytometry analysis for cell cycle progression and (c) measurements of apoptosis by TUNEL assay.
(22). At the end of an incubation period of 4 hours, culture plates were centrifuged at 300 g for 2 minutes.

[18] = tested on: Jurkat cells; assay: Jurkat histologic evaluation (Wright's stain); type: cell-based, human; conditions: 48 hours
Method: Histologic Evaluation. […] Wright's stains of all slides were performed using an automated Hemastainer (Geometric Data, Wayne, Pa.). Slides were analyzed microscopically, photographed (Olympus BH 2, Tokyo, Japan) at 100, 200, and 400 power, and evaluated for morphological changes.

[19] = tested on: Tu138 tumor; assay: Tu138 tumor in nude mice, intraperitoneal treatment; conditions: paclitaxel 120 μg and/or ceramide 500 μg, within 4 weeks of administration
[20] = Homo sapiens, read-out: % Growth Inhibition
[21] = n=25, 250 mg/m^2, 24 hour infusion every 21 day interval

## CC(=O)O[C@H]1C(=O)[C@@]2(C)[C@H]([C@H](OC(=O)c3ccccc3)[C@]3(O)C[C@H](OC(=O)[C@H](O)[C@@H](NC(=O)c4ccccc4)c4ccccc4)C(C)=C1C3(C)C)[C@]1(OC(C)=O)CO[C@@H]1C[C@@H]2O [Paclitaxel]
[1]; [20]
  inhibition at 0.6 µg/mL: 10%
[2]; Homo sapiens, LNCaP, read-out: % Growth Inhibition
  inhibition at 0.6 µg/mL: 13%
[3]; Homo sapiens, HT-29, read-out: % Growth Inhibition
  inhibition at 0.6 µg/mL: 16%
[4]; higher than ID50 paclitaxel concentrations
  number of cells in G2/M phase: 38%
[4]; lower than ID50 paclitaxel concentrations (0.6–6.0 ng/ml)
  cells blocked in G2/M phase of the cell cycle: greater than 55%
[5]; [20]
  inhibition at 0.6 µg/mL: 16%
[6]; paclitaxel, most tumor cell lines tested
  ID50 (cytotoxicity): 0.006 to 0.06 µg/mL
[7]; 250 mg/m^2
  dose related toxicity: severe
[7]; [21]
  complete response rate: 12%
  partial response rate: 44%
[8]; 10% fetal bovine serum
  concentrations that effectively blocked thymidine incorporation: higher than 0.06 ng/ml
[8]; Homo sapiens, Jurkat, read-out: growth inhibition
  inhibition at 0.0006 µg/mL: 56.5%
[8]; Taxol 0.6 ng/ml, Experiment 1
  [3H]thymidine uptake counts ± SD: 52675 ± 7478 cpm
[8]; Taxol 0.6 ng/ml, Experiment 2
  [3H]thymidine uptake counts ± SD: 95563 ± 6427 cpm
[8]; Taxol 0.6 ng/ml, Experiment 3
  [3H]thymidine uptake counts ± SD: 22771 ± 5113 cpm
[8]; Taxol 0.6 ng/ml, Experiment 4
  [3H]thymidine uptake counts ± SD: 89621 ± 17579 cpm
[8]; Taxol 0.6 ng/ml, Experiment 5
  [3H]thymidine uptake counts ± SD: 98694 ± 32045 cpm
[8]; Taxol 6.0 ng/ml, Experiment 1
  [3H]thymidine uptake counts ± SD: 16592 ± 782 cpm
[8]; Taxol 6.0 ng/ml, Experiment 2
  [3H]thymidine uptake counts ± SD: 33443 ± 17976 cpm
[8]; Taxol 6.0 ng/ml, Experiment 3
  [3H]thymidine uptake counts ± SD: 13400 ± 849 cpm
[8]; Taxol 6.0 ng/ml, Experiment 4
  [3H]thymidine uptake counts ± SD: 35466 ± 7576 cpm
[8]; Taxol 6.0 ng/ml, Experiment 5
  [3H]thymidine uptake counts ± SD: 10295 ± 353 cpm
[8]; paclitaxel alone, n=5, 3-day exposure assay
  ED50 (cell growth inhibition): approximately 0.5 ng/ml
[8]; paclitaxel alone, serum 10% to 1%
  effect of serum level on growth inhibition: unaffected by variation of serum levels
[9]
  Tumor Size (mm^2) at Week 5: 176.0 ± 90.3 mm^2
  reduction in tumor growth / tumor size vs vehicle control: 11.1%
[10]; [20]
  inhibition at 0.6 µg/mL: 2%
[11]; paclitaxel alone 120 μg/0.1 mL s.c. thrice weekly
  tumor growth compared with control: grew aggressively in control and paclitaxel treated mice almost equally; also recorded: equivalent growth
[12]; [20]
  inhibition at 0.6 µg/mL: 55%
[13]; 0.6 ng/ml of paclitaxel
  apoptosis (TUNEL): 19.6%
[14]; 24 hours
  cells blocked in the G2-M phase: 61.8%
[14]; 48 hours
  cells blocked in the G2-M phase: 58.2%
[15]; paclitaxel 600 ng/ml alone, 24 hours
  apoptosis (TUNEL): 18.4%
[15]; paclitaxel 600 ng/ml alone, 48 hours
  apoptosis (TUNEL): 54.8%
[16]; 0.6 and 6.0 ng/ml paclitaxel each
  hypodiploid (sub-G1) cell population: approximately 25%
[16]; paclitaxel 0.6 ng/ml alone
  cell population in S phase: 31.8%
  decrease of cells in the G0–G1 phase: 13.3%
  total cell population in the G2-M phase: 22.2%
[16]; paclitaxel 6.0 ng/ml alone
  cell population in S phase: 27%
  decrease of cells in the G0–G1 phase: 23.5%
  total cell population in the G2-M phase: 38.2%
[16]; paclitaxel 0.6 or 6.0 ng/ml alone
  increase in the G2-M cell population vs untreated control: 2–3 fold
[17]; paclitaxel alone
  ED50 (cytotoxicity, MTT): 1.92 ± 1.2 µg/mL (≈ 2.25 µM)
[18]; 0.6 and 6.0 ng/ml of paclitaxel alone
  morphological changes (Wright's stain): apoptotic bodies were noted amid cell shrinkage and nuclear and membrane blebbing
[19]
  tumor size / tumor burden reduction in comparison to control (vehicle): 29%

## CCCCCCCCCCCCC/C=C/[C@@H](O)[C@H](CO)NC(=O)CCCCC [Ceramide, N-hexanoyl-D-sphingosine]
[1]; CERAMIDE (25 μg/nl) alone, TU138
  % Growth Inhibition: 28%
[2]; CERAMIDE (25 μg/nl) alone, LnCap
  % Growth Inhibition: 25%
[3]; CERAMIDE (25 μg/nl) alone, HT29
  % Growth Inhibition: 61%
[5]; CERAMIDE (25 μg/nl) alone
  % Growth Inhibition: 8%
[6]; ceramide, approximately
  calculated ID50 (cytotoxicity): 30.0 to 40.0 µg/mL
[8]; Ceramide 25 μg/ml, Experiment 1
  [3H]thymidine uptake counts ± SD: 378245 ± 28689 cpm
[8]; Ceramide 25 μg/ml, Experiment 2
  [3H]thymidine uptake counts ± SD: 415740 ± 6168 cpm
[8]; Ceramide 25 μg/ml, Experiment 3
  [3H]thymidine uptake counts ± SD: 301993 ± 67599 cpm
[8]; Ceramide 25 μg/ml, Experiment 4
  [3H]thymidine uptake counts ± SD: 259230 ± 54914 cpm
[8]; Ceramide 25 μg/ml, Experiment 5
  [3H]thymidine uptake counts ± SD: 189052 ± 3534 cpm
[8]; ceramide added alone, all test concentrations (0 to 50 μg/ml), 10% fetal bovine serum
  growth inhibition: ≤ 6%
[8]; low serum (1%)
  ceramide-mediated growth inhibition: > 99%
[9]; ceramide delivered in cremophore, nude mice
  toxicity: no toxicity
[9]
  Tumor Size (mm^2) at Week 5: 109.5 ± 14.1 mm^2
  reduction in tumor growth / tumor size vs vehicle control: 44.7%
[10]; CERAMIDE (25 μg/nl) alone, RWP-2
  % Growth Inhibition: 6%
[11]; ceramide alone 500 μg/0.2 mL s.c. thrice weekly, excised day 45
  tumor weight: substantial reduction in tumor weight
[11]; ceramide alone 500 μg/0.2 mL s.c. thrice weekly, week 5
  tumor size: slight decrease in tumor size
[12]; CERAMIDE (25 μg/nl) alone
  % Growth Inhibition: 8%
[13]; 12.5 μg/ml of ceramide
  apoptosis (TUNEL): 0.41%
[13]; 25 μg/ml of ceramide
  apoptosis (TUNEL): 0.33%
[14]
  effect on cell cycle progression: did not significantly affect either G0–G1 or G2-M phase
[14]; listed as ceramide
  effect on cell cycle progression: no significant effect
[15]; ceramide 25 μg/ml alone, 24 hours
  apoptosis (TUNEL): 9.7%
[15]; ceramide 25 μg/ml alone, 48 hours
  apoptosis (TUNEL): 13.6%
[16]; ceramide treatment, 10% fetal bovine serum
  cell cycle pattern: did not differ from the non-ceramide-exposed control
[17]; ceramide 12.5 μg/ml
  cytotoxicity: 19%
[17]; 24 hours
  cell cytotoxicity (time kinetics): 32.7%
[17]; 72 hours
  cell cytotoxicity (time kinetics): 54.5%
[17]; ceramide 25 μg/ml
  cytotoxicity: 46%
[17]; ceramide alone
  ED50 (cytotoxicity, MTT): 22 ± 5 µg/mL (≈ 55.3 µM)
[18]; ceramide 25 μg/ml, 10% serum
  morphological changes (Wright's stain): morphologically indistinguishable from control cells
[19]
  tumor size / tumor burden reduction in comparison to control (vehicle): no significant effect
